For orientation: viability, T/C means the ratio of treated to control. By IC50 is commonly meant the concentration that inhibits the measured activity by half.

viability, T/C and IC50 data for 6 compounds are collected here from PubChem BioAssay AID2060328 (Molecular Pharmacology Branch, DTP, NCI, 2025).

Values joined by “and” are separate entries in the source; they are usually repeats but may differ in a detail not shown here. Equal entries are not always repeated.

This experiment concerns MDA-MB-231 multicell spheroids, viability (%T/C). Briefly: Anticancer human tumor MDA-MB-231 cell line growth inhibition [IpAb].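 As to all read-outs here: viability read after seven days of drug exposure.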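 As to viability, T/C: 100% = DMSO vehicle control viability.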 Particulars: for viability, T/C: stronger effect = lower value. The method, boiled down:
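Combinations with ipatasertib or abemaciclib were tested on tumour spheroids holding HUVEC (25%) and MSC (15%) alongside 60% malignant cells. Top concentration was at or near clinical Cmax (10 microM if undefined), descending in half-log steps.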

Setting [1] is: curve of first compound, second compound 0.1 µM.
Setting [2] is: curve of first compound, second compound 0.316 µM.
Where [3] appears, read: curve of first compound, second compound 1 µM.
Where [4] appears, read: second compound 0.1 µM, first compound 0.00949 µM.
Where [5] appears, read: second compound 0.1 µM, first compound 0.03 µM.
Setting [6] is: second compound 0.1 µM, first compound 0.0949 µM.
Where [7] appears, read: second compound 0.1 µM, first compound 0.3 µM.
Setting [8] is: second compound 0.1 µM, first compound 0.949 µM.
Where [9] appears, read: second compound 0.1 µM, first compound 3 µM.
Setting [10] is: second compound 0.316 µM, first compound 0.00949 µM.
Where [11] appears, read: second compound 0.316 µM, first compound 0.03 µM.
[12] abbreviates: second compound 0.316 µM, first compound 0.0949 µM.
[13] abbreviates: second compound 0.316 µM, first compound 0.3 µM.
Where [14] appears, read: second compound 0.316 µM, first compound 0.949 µM.
Setting [15] is: second compound 0.316 µM, first compound 3 µM.
Where [16] appears, read: second compound 1 µM, first compound 0.00949 µM.
[17] abbreviates: second compound 1 µM, first compound 0.03 µM.
The mark [18] stands for this setting: second compound 1 µM, first compound 0.0949 µM.
[19] abbreviates: second compound 1 µM, first compound 0.3 µM.
Setting [20] is: second compound 1 µM, first compound 0.949 µM.
[21] abbreviates: second compound 1 µM, first compound 3 µM.
The mark [22] stands for this setting: curve of first compound, second compound 0.01 µM.
The mark [23] stands for this setting: curve of first compound, second compound 0.0316 µM.

On to `Cc1nc(NC(=O)N2CCCC2C(N)=O)sc1-c1ccnc(C(C)(C)C(F)(F)F)c1` (stereo unspecified), for which the viability, T/C is, setting by setting: (compound 0.0316 µM) 92.2% and 88.6%; (compound 0.1 µM) 74.9% and 72.1%; (compound 0.316 µM) 68.2% and 66%; (compound 1 µM) 65.7% and 73.6%; (compound 3.16 µM) 66.8% and 71.2%; (compound 10 µM) 62.7% and 60.5%. Further, the concentration for half-maximal inhibition (IC50) (curve of compound) is over 10000 nM.

Regarding `COc1c(OCCCN2CCOCC2)ccc2c3n(c(=NC(=O)c4cnc(N)nc4)nc12)CCN3`, the viability, T/C was 84% and 88.5% (compound 0.00316 µM); 70.3% and 69.2% (compound 0.01 µM); 55.8% and 53.5% (compound 0.0316 µM); 43.3% and 42% (compound 0.1 µM); 34.1% and 33.4% (compound 0.316 µM); 37.6% and 40.3% (compound 1 µM). For the same compound, the IC50 (curve of compound) was 50.1 nM and 39.5 nM.

`CC(C)(C)c1cnc(CSc2cnc(NC(=O)C3CCNCC3)s2)o1` + CC(C)NCC(C(=O)N1CCN(c2ncnc3c2C(C)CC3O)CC1)c1ccc(Cl)cc1: the IC50 is, setting by setting: under setting [1], 171 nM; under setting [2], 152 nM; under setting [3], 140 nM; (curve of first compound, second compound 3.16 µM) 109 nM; (curve of first compound, second compound 10 µM) under 9.49 nM. Besides, the viability, T/C is 110% under setting [4]; 115% under setting [5]; 101% under setting [6]; 1.85% under setting [7]; 1.02% under setting [8]; 1.06% under setting [9]. The viability, T/C by setting is: under setting [10], 94.5%; under setting [11], 98.8%; under setting [12], 83.5%; under setting [13], 1.35%; under setting [14], 0.87%; under setting [15], 0.98%. Besides, the viability, T/C was 79.2% under setting [16]; 84.8% under setting [17]; 74.4% under setting [18]; 2.5% under setting [19]; 0.85% under setting [20]; 0.86% under setting [21]. The viability, T/C is, setting by setting: (second compound 3.16 µM, first compound 0.00949 µM) 61.1%; (second compound 3.16 µM, first compound 0.03 µM) 61.7%; (second compound 3.16 µM, first compound 0.0949 µM) 56.5%; (second compound 3.16 µM, first compound 0.3 µM) 1.57%; (second compound 3.16 µM, first compound 0.949 µM) 0.65%; (second compound 3.16 µM, first compound 3 µM) 0.78%. Besides, the viability, T/C runs as follows: (second compound 10 µM, first compound 0.00949 µM) 42.1%; (second compound 10 µM, first compound 0.03 µM) 43.8%; (second compound 10 µM, first compound 0.0949 µM) 35.1%; (second compound 10 µM, first compound 0.3 µM) 0.95%; (second compound 10 µM, first compound 0.949 µM) 0.79%; (second compound 10 µM, first compound 3 µM) 0.8%.

With `CCCS(=O)(=O)Nc1ccc(F)c(C(=O)c2c[nH]c3ncc(-c4ccc(Cl)cc4)cc23)c1F`, the viability, T/C was 112% and 109% (compound 0.0316 µM); 111% and 109% (compound 0.1 µM); 106% and 112% (compound 0.316 µM); 100% and 104% (compound 1 µM); 80.9% and 79.1% (compound 3.16 µM); 46.6% and 41.1% (compound 10 µM). The IC50 (curve of compound) was 9000 nM and 7630 nM.

`CC(C)(C)c1cnc(CSc2cnc(NC(=O)C3CCNCC3)s2)o1` + CCN1CCN(Cc2ccc(Nc3ncc(F)c(-c4cc(F)c5nc(C)n(C(C)C)c5c4)n3)nc2)CC1: the IC50 is, setting by setting: under setting [22], 171 nM; under setting [23], 148 nM; under setting [1], 120 nM; under setting [2], 33.3 nM; under setting [3], 36.3 nM. The viability, T/C runs as follows: (second compound 0.01 µM, first compound 0.00949 µM) 92.2%; (second compound 0.01 µM, first compound 0.03 µM) 102%; (second compound 0.01 µM, first compound 0.0949 µM) 106%; (second compound 0.01 µM, first compound 0.3 µM) 1.81%; (second compound 0.01 µM, first compound 0.949 µM) 0.77%; (second compound 0.01 µM, first compound 3 µM) 0.81%. Moreover, the viability, T/C reads like this: (second compound 0.0316 µM, first compound 0.00949 µM) 76.8%; (second compound 0.0316 µM, first compound 0.03 µM) 82.2%; (second compound 0.0316 µM, first compound 0.0949 µM) 83.9%; (second compound 0.0316 µM, first compound 0.3 µM) 1.55%; (second compound 0.0316 µM, first compound 0.949 µM) 0.68%; (second compound 0.0316 µM, first compound 3 µM) 0.85%. Further, the viability, T/C runs as follows: under setting [4], 59.1%; under setting [5], 63.1%; under setting [6], 66%; under setting [7], 1.37%; under setting [8], 0.89%; under setting [9], 1.1%. The viability, T/C reads like this: under setting [10], 47.4%; under setting [11], 53.4%; under setting [12], 46.1%; under setting [13], 1.36%; under setting [14], 0.96%; under setting [15], 0.95%. Besides, the viability, T/C by setting is: under setting [16], 52.7%; under setting [17], 53.4%; under setting [18], 34.9%; under setting [19], 1.87%; under setting [20], 1.16%; under setting [21], 1.42%.

In the case of `Cc1nc(NC(=O)N2CCCC2C(N)=O)sc1-c1ccnc(C(C)(C)C(F)(F)F)c1` (stereo unspecified) + CCN1CCN(Cc2ccc(Nc3ncc(F)c(-c4cc(F)c5nc(C)n(C(C)C)c5c4)n3)nc2)CC1, the IC50 was over 10000 nM under setting [22]; 159 nM under setting [23]; under 31.6 nM under setting [1]; under 31.6 nM under setting [2]; under 31.6 nM under setting [3]. In addition, the viability, T/C is, setting by setting: (second compound 0.01 µM, first compound 0.0316 µM) 79.3%; (second compound 0.01 µM, first compound 0.1 µM) 61.5%; (second compound 0.01 µM, first compound 0.316 µM) 56%; (second compound 0.01 µM, first compound 1 µM) 55.2%; (second compound 0.01 µM, first compound 3.16 µM) 59.1%; (second compound 0.01 µM, first compound 10 µM) 55.4%. Moreover, the viability, T/C (second compound 0.0316 µM, first compound 0.0316 µM) was 64%; the viability, T/C (second compound 0.0316 µM, first compound 0.1 µM) is 52.2%; the viability, T/C (second compound 0.0316 µM, first compound 0.316 µM) was 46.6%; the viability, T/C (second compound 0.0316 µM, first compound 1 µM) was 45.9%; the viability, T/C (second compound 0.0316 µM, first compound 3.16 µM) was 47.3%; the viability, T/C (second compound 0.0316 µM, first compound 10 µM) is 45.4%. Also, the viability, T/C runs as follows: (second compound 0.1 µM, first compound 0.0316 µM) 46.1%; (second compound 0.1 µM, first compound 0.1 µM) 41.8%; (second compound 0.1 µM, first compound 0.316 µM) 35.8%; (second compound 0.1 µM, first compound 1 µM) 38.4%; (second compound 0.1 µM, first compound 3.16 µM) 41.5%; (second compound 0.1 µM, first compound 10 µM) 41.8%. Further, the viability, T/C reads like this: (second compound 0.316 µM, first compound 0.0316 µM) 43.7%; (second compound 0.316 µM, first compound 0.1 µM) 39.3%; (second compound 0.316 µM, first compound 0.316 µM) 37.3%; (second compound 0.316 µM, first compound 1 µM) 37.7%; (second compound 0.316 µM, first compound 3.16 µM) 39.4%; (second compound 0.316 µM, first compound 10 µM) 45.3%. The viability, T/C is, setting by setting: (second compound 1 µM, first compound 0.0316 µM) 50.8%; (second compound 1 µM, first compound 0.1 µM) 48.2%; (second compound 1 µM, first compound 0.316 µM) 44.6%; (second compound 1 µM, first compound 1 µM) 45.9%; (second compound 1 µM, first compound 3.16 µM) 53.9%; (second compound 1 µM, first compound 10 µM) 61%.
